Measured values reported in US20030013660A1, “Dioxolane analogs for improved inter-cellular delivery” (Shire BioChem Inc., priority 2000, published 2003).
Where two headings read alike, the source gives them in different places.

How the values were obtained:
Test in all cases: 3H-TdR (3H-thymidine) incorporation assay at 72 hr
CEM/dCK- = assay type: cell-based; conditions: for IC50: Homo sapiens, CCRF-CEM; for Factor* (Resistance Factor = Ratio of dCK- on Wild-type CCRF-CEM): ratio of IC50 CEM/dCK- to CCRF-CEM, 24 h
Description: (§1) Table of IC50 Values (μM) for Controls
(§2) Exposition of 24 hr to drug, wash, incubated for another 48 hr (total of 72 hr assay)
(§3) (3H-Thymidine Incorporation Assay)

CCRF-CEM = assay type: cell-based; conditions: Homo sapiens, CCRF-CEM
Description: as §1, §2, §3

SF-268 = assay type: cell-based, Human; conditions: Homo sapiens
MCF-7 = assay type: cell-based, Human; conditions: Homo sapiens
H-460 = assay type: cell-based, Human; conditions: Homo sapiens
[1] = read-out: IC50 CEM/dCK- 24 h, 24 h drug exposure, wash, another 48 hr, deoxycytidine kinase-deficient CCRF-CEM
[2] = read-out: IC50 CCRF-CEM 24 h, 24 h drug exposure, wash, another 48 hr, 3H-TdR incorporation at 72 hr
[3] = SF-268, read-out: IC50 SF-268 24 h, 24 h drug exposure, wash, another 48 hr, 3H-TdR incorporation at 72 hr
[4] = MCF7, read-out: IC50 MCF-7 24 h, 24 h drug exposure, wash, another 48 hr, 3H-TdR incorporation at 72 hr
[5] = NCI-H460, read-out: IC50 H-460 24 h, 24 h drug exposure, wash, another 48 hr, 3H-TdR incorporation at 72 hr

Row | Compound | IC50 (CEM/dCK-; [1]) [µM] | Factor* (Resistance Factor = Ratio of dCK- on Wild-type CCRF-CEM) (CEM/dCK-) | IC50 (CCRF-CEM; [2]) [µM] | IC50 (SF-268; [3]) [µM] | IC50 (MCF-7; [4]) [µM] | IC50 (H-460; [5]) [µM] | IC50 (CEM/dCK-; read-out: IC50 CEM/dCK- 24 h) [µM] | IC50 (CCRF-CEM; read-out: IC50 CCRF-CEM 24 h) [µM] | IC50 (SF-268; SF-268, read-out: IC50 SF-268 24 h) [µM] | IC50 (MCF-7; MCF7, read-out: IC50 MCF-7 24 h) [µM] | IC50 (H-460; NCI-H460, read-out: IC50 H-460 24 h) [µM]
1 | CN(C)/C=N/c1ccn([C@@H]2CO[C@H](COC(=O)C(C)(C)c3ccccc3)O2)c(=O)n1 [Compound 142, (2S,4S)-2-(2″- DIMETHYLPHENYLACETOXY)M ETHYL-4-(4′-N,N- DIMETHYLAMINOMETHYLENE- CYTOSTN-1,-YL)-1,3- DIOXOLANE] | 46 | 6,389 | 0.0072 | 0.13 | 0.029 | 0.038 |  |  |  |  | 
2 | CC(C)(C)C(=O)Nc1ccn([C@@H]2CO[C@H](CO)O2)c(=O)n1 [Compound 49, N-[1-(2-HYDROXYMETHYL- [1,3]DIOXOLAN-4-YL)- CYTOSYL]-2,2-DIMETHYL- PROPIONAMIDE] | > 100 | 175 | 0.57 | 7.1 | 8.8 | 4.5 |  |  |  |  | 
3 | CCCCCOC(=O)Nc1ccn([C@@H]2CO[C@H](CO)O2)c(=O)n1 [Compound 71, [1-(2-HYDROXYMETHYL- [1,3]DIOXOLAN-4-YL)-2- OXO-1,2-DIHYDRO- PYRIMIDIN-4-YL]- CARBAMIC ACID PENTYL ESTER] | > 100 | 556 | 0.18 | 0.81 | 0.13 | 0.31 |  |  |  |  | 
4 | CC(C)(C)OC(=O)N(CCCCC(=O)Nc1ccn([C@@H]2CO[C@H](COC(=O)CCCCN(Cc3ccccc3)C(=O)OC(C)(C)C)O2)c(=O)n1)Cc1ccccc1 [Compound 114, 5-(BENZYL-TERT- BUTOXYCARBONYL-AMINO)- PENTANOIC ACID 4-{4-[5- (BENZYL-TERT- BUTOXYCARBONYL-AMINO)- PENTANOYLAMINO]-2-OXO- 2H!PYRIMIDIN-1-YL}- [1,3]DIOXOLAN-2- YLMETHYL ESTER] | 8 | 500 | 0.016 | 0.041 | 0.017 | 0.066 |  |  |  |  | 
5 | O=c1nc(NCn2nnc3ccccc32)ccn1[C@@H]1CO[C@H](CO)O1 [Compound 152, 4-[(BENZOTRIAZOL-1- YLMETHYL)-AMINO]-1-(2- HYDROXYMETHYL- [1,3]DIOXOLAN-4-YL)-1H- PYRIMIDIN-2-ONE] | > 100 | >127 | 0.79 | 31 | 3 | 3.5 |  |  |  |  | 
6 | CCOC(=O)Nc1ccn([C@@H]2CO[C@H](CO)O2)c(=O)n1 [Compound 45, [1-(2-HYDROXYMETHYL- [1,3]DIOXOLAN-4-YL)-2- OXO-1,2-DIHYDRO- PYRIMIDIN-4-YL]- CARBAMIC ACID ETHYL ESTER] | > 100 | 63 | 1.6 | 9 | 2.7 | 3.2 |  |  |  |  | 
7 | CC(C)C(C(=O)OC[C@H]1OC[C@@H](n2ccc(N)nc2=O)O1)N(C)C (stereo partly drawn) [Compound 156, (2S,4S)-2-(N,N- DIMETHYL-L- VALINYLOXYMETHYL)-4- CYTOSIN-1′-YL-1,3- DIOXOLANE] | 81 | 11,571 | 0.007 | 0.93 | 0.068 | 0.12 |  |  |  |  | 
8 | Nc1cc[n+]([C@@H]2CO[C@H](COC(c3ccccc3)(c3ccccc3)c3ccccc3)O2)c(=O)[nH]1 (stereo in doubt) [Compound 53, 4-AMINO-1-(2- TRITYLOXYMETHYL- [1,3]DIOXOLAN-4-YL)-1H- PYRIMIDIN-2-ONE] | 37 | 19 | 2 | 10 | 10 | 8.9 |  |  |  |  | 
9 | CCC(C)(C)OC(C)OC[C@H]1OC[C@@H](n2ccc(N)nc2=O)O1 (mixture of isomers) [Compound 117, 4-AMINO-1-{2-[1-(1,1- DIMETHYL-PROPOXY)- ETHOXYMETHYL]- [1,3]DIOXOLAN-4-YL}-1H- PYRIMIDIN-2-ONE] | 89 | 494 | 0.18 | 0.68 | 0.46 | 0.46 |  |  |  |  | 
10 | O=c1nc(NC2(c3ccccc3)c3ccccc3Oc3ccccc32)ccn1[C@@H]1CO[C@H](COC2(c3ccccc3)c3ccccc3Oc3ccccc32)O1 [Compound 144, 4-(9-PHENYL-9#H!- XANTHEN-9-YLAMINO)-1- [2-(9-PHENYL-9#H!- XANTHEN-9-YLOXYMETHYL)- [1,3]DIOXOLAN-4-YL]- 1#H!-PYRIMIDIN-2-ONE] | 78 | 110 | 0.71 | 1.9 | 5.2 | 3 |  |  |  |  | 
11 | CC(C)(C)C(=O)OCOC[C@H]1OC[C@@H](n2ccc(N)nc2=O)O1 [Compound 58, 2,2-DIMETHYL-PROPIONIC ACID 4-(4-AMINO-2-OXO- 2H-PYRIMIDIN-1-YL)- [1,3]DIOXOLAN-2- YLMETHOXYMETHYL ESTER] | 38 | 2,714 | 0.014 | 0.13 | 0.016 | 0.012 |  |  |  |  | 
12 | CC(C)OC(=O)OCOC[C@H]1OC[C@@H](n2ccc(N)nc2=O)O1.O=C(O)C(F)(F)F [Compound 68, CARBONIC ACID 4-(4- AMINO-2-OXO-2H- PYRIMIDIN-1-YL)- [1,3]DIOXOLAN-2- YLMETHOXYMETHYL ESTER ISOPROPYL ESTER TRIFLUOROACETIC ACID SALT] | > 100 | 3,333 | 0.03 | 0.21 | 0.076 | 0.019 |  |  |  |  | 
13 | CC(=O)OCC1OC2OC(C)(OC[C@H]3OC[C@@H](n4ccc(N)nc4=O)O3)OC2C(OC(C)=O)C1OC(C)=O (stereo in doubt) [Compound 151, Acetic acid 6-acetoxy-5-acetoxymethyl-2-[4-(4-amino-2-oxo-2H-pyrimidin-1-yl)-[1,3]dioxolan-2-ylmethoxy]-2-methyl-tetrahydro-[1,3]dioxolo [4,5-b]pyran-7-yl ester] | > 100 | >169 | 0.59 | 4.4 | 8.3 | 9.7 |  |  |  |  | 
14 | CCCCCCCC(=O)Nc1ccn([C@@H]2CO[C@H](CO)O2)c(=O)n1 [Compound 55, OCTANOIC ACID [1-(2- HYDROXYMETHYL- [1,3]DIOXOLAN-4-YL)-2- OXO-1, 2-DIHYDRO- PYRIMIDIN-4-YL]-AMIDE] | 64 | 5,333 | 0.012 | 0.047 | 0.0078 | 0.029 |  |  |  |  | 
15 | CCCCC(C)C(=O)OC[C@H]1OC[C@@H](n2ccc(/N=C/N(C)C)nc2=O)O1 (stereo partly drawn) [Compound 64, (2S,4S)-2-(2″-METHYL- HEXANOICOXYMETHYL)-4- (4′-NN- DIMETHYLAMINOMETHYLENE- CYTOSIN-1′-YL)-1,3- DIOXOLANE] | 3.6 | 2,000 | 0.0018 | 0.0071 | 0.0044 | 0.0017 |  |  |  |  | 
16 | CC(CCCCN(Cc1ccccc1)C(=O)OC(C)(C)C)C(=O)Nc1ccn([C@@H]2CO[C@H](CO)O2)c(=O)n1 (stereo in doubt) [Compound 158, Benzyl-{5-[1-(2-hydroxymethyl-[1,3]dioxolan-4-yl)-2-oxo-1,2-dihydro-pyrimidin-4-ylcarbamoyl]-hexyl}-carbamic acid tert-butyl ester] | 58 | 617 | 0.094 | 3.7 | 0.04 | 0.63 |  |  |  |  | 
17 | O=C(O)C(F)(F)F.O=c1nc(NC/C=C/c2ccccc2)ccn1[C@@H]1CO[C@H](CO)O1 [Compound 89, 1-(2-HYDROXYMETHYL- [1,3]DIOXOLAN-4-YL)-4- (3-CINNAMYL)-1H- PYRIMIDIN-2-ONE TRIFLUORO-ACETATE SALT] | > 100 | 40 | 2.5 | 11 | 0.22 | 3.8 |  |  |  |  | 
18 | CC(C(=O)OC[C@H]1OC[C@@H](n2ccc(N)nc2=O)O1)C(c1ccccc1)c1ccccc1 (stereo partly drawn) [Compound 157, (2S,4S)-(3″-DIPHENYL- 2″- METHYLPROPIOXYMETHYL)- 4-CYTOSIN-1′-YL-1,3- DIOXOLANE] | > 100 | >8333 | 0.012 | 2.2 | 0.55 | 0.024 |  |  |  |  | 
19 | O=C(Nc1ccn([C@@H]2CO[C@H](COC(=O)Oc3ccccc3)O2)c(=O)n1)Oc1ccccc1 [Compound 43] |  | 1,000,000 |  |  |  |  | > 100 | < 0.0001 | 0.029 | 0.0041 | 0.01
